Assay results taken from ChEMBL document CHEMBL1132023, “Synthesis and anticancer evaluation of certain alpha-methylene-gamma-(4-substituted phenyl)-gamma-butyrolactone bearing thymine, uracil, and 5-bromouracil” (1999).

What was measured:
Type in all cases: functional
Settings in all cases: Homo sapiens
ACHN = experiment: In vitro inhibition of Renal Cancer ACHN cell lines
A549 = experiment: In vitro inhibition of Non-Small Cell Lung Cancer A549/ATCC cell lines
COLO 205 [1] = experiment: In vitro inhibition of Colon Cancer COLO 205 cell lines
DU-145 = experiment: In vitro inhibition of Prostate Cancer DU-145 cell lines
HL-60 [2] = experiment: In vitro inhibition of Leukemia HL-60(TB) cell lines(most sensitive cell)
Hs-578T [3] = experiment: In vitro inhibition of Breast Cancer Hs 578.T cell lines
IGROV-1 = experiment: In vitro inhibition of Ovarian Cancer IGROV1 cell lines
LOX IMVI = experiment: In vitro inhibition of Melanoma LOX IM VI cell lines
MDA-MB-435 = experiment: In vitro inhibition of Breast Cancer MDA-MB-435 cell lines
Malme-3M = experiment: In vitro inhibition of Melanoma MALME-3M cell lines
NCI-H460 [4] = experiment: In vitro inhibition of Non-Small Cell Lung Cancer NCI-H460 cell lines
PC-3 = experiment: In vitro inhibition of Prostate Cancer PC-3 cell lines
RPMI-8226 [5] = experiment: In vitro inhibition of Leukemia RPMI-8226 cell lines
SNB-19 [6] = experiment: In vitro inhibition of CNS Cancer SNB-19 cell lines(least sensitive cell)
SK-OV-3 = experiment: In vitro inhibition of Ovarian Cancer SK-OV-3 cell lines
SW-620 = experiment: In vitro inhibition of Colon Cancer SW-620 cell lines
TK-10 = experiment: In vitro inhibition of Renal Cancer TK-10 cell lines
U-251 = experiment: In vitro inhibition of CNS Cancer U-251 cell lines
COLO 205 [7] = experiment: In vitro inhibition of Colon Cancer COLO 205 cell lines( most sensitive cell)
HL-60 [8] = experiment: In vitro inhibition of Leukemia HL-60(TB) cell lines
SNB-19 [9] = experiment: In vitro inhibition of CNS Cancer SNB-19 cell lines
Hs-578T [10] = experiment: In vitro inhibition of Breast Cancer Hs 578.T cell lines( least sensitive cell)
NCI-H460 [11] = experiment: In vitro inhibition of Non-Small Cell Lung Cancer NCI-H460 cell lines(least sensitive cell)
RPMI-8226 [12] = experiment: In vitro inhibition of Leukemia RPMI-8226 cell lines( most sensitive cell)
HL-60 [13] = experiment: In vitro inhibition of Leukemia HL-60(TB) cell lines ( most sensitive cell)
HL-60 [14] = experiment: In vitro inhibition of Leukemia HL-60(TB) cell lines( most sensitive cell)
SNB-19 [15] = experiment: In vitro inhibition of CNS Cancer SNB-19 cell lines( least sensitive cell)
Hs-578T [16] = experiment: In vitro inhibition of Breast Cancer Hs 578.T cell lines(The least sensitive cell)
NCI-H460 [17] = experiment: In vitro inhibition of Non-Small Cell Lung Cancer NCI-H460 cell lines( least sensitive cell)

Row | Structure (SMILES) | GI50 (ACHN) [µM] | GI50 (A549) [µM] | GI50 (COLO 205 [1]) [µM] | GI50 (DU-145) [µM] | GI50 (Hs-578T [3]) [µM] | GI50 (IGROV-1) [µM] | GI50 (LOX IMVI) [µM] | GI50 (MDA-MB-435) [µM] | GI50 (Malme-3M) [µM] | GI50 (NCI-H460 [4]) [µM] | GI50 (PC-3) [µM] | GI50 (RPMI-8226 [5]) [µM] | GI50 (SK-OV-3) [µM] | GI50 (SW-620) [µM] | GI50 (TK-10) [µM] | GI50 (U-251) [µM] | GI50 (COLO 205 [7]) [µM] | GI50 (HL-60 [8]) [µM] | GI50 (SNB-19 [9]) [µM] | GI50 (Hs-578T [10]) [µM] | further results
1 | C=C1CC(Cn2cc(Br)c(=O)[nH]c2=O)(c2ccc(-c3ccccc3)cc2)OC1=O (configuration not stated) | 2.51 | 6.17 | 0.355 | 1.07 | 4.79 | 1.2 | 0.851 | 1 | 1.55 | 10.5 | 1.26 | 0.129 | 6.03 | 0.282 | 0.126 | 5.75 | – | – | – | – | GI50 (HL-60 [2]): 0.0457 µM; GI50 (SNB-19 [6]): 14.5 µM
2 | C=C1CC(Cn2ccc(=O)[nH]c2=O)(c2ccc(F)cc2)OC1=O (configuration not stated) | 13.2 | 17 | – | 15.1 | – | 13.2 | 6.03 | 10.7 | 7.59 | 13.8 | 16.2 | 5.37 | 15.1 | 4.9 | 14.5 | 15.5 | 3.02 | 3.72 | 14.8 | 20.4 | –
3 | C=C1CC(Cn2cc(Br)c(=O)[nH]c2=O)(c2ccc(F)cc2)OC1=O (configuration not stated) | 4.47 | – | 2.24 | 16.2 | 14.5 | 12.9 | 3.39 | 4.07 | 4.57 | – | 11.7 | – | 16.6 | 2.75 | 17 | 8.51 | – | 1.74 | 19.5 | – | GI50 (NCI-H460 [11]): 20.9 µM; GI50 (RPMI-8226 [12]): 0.468 µM
4 | C=C1CC(Cn2cc(C)c(=O)[nH]c2=O)(c2ccc(-c3ccccc3)cc2)OC1=O (configuration not stated) | 7.59 | 12.3 | 1.41 | 1.66 | – | 1.91 | 1.74 | 2 | 3.72 | 13.8 | 2.51 | 0.646 | 13.5 | 1.02 | 1.58 | 13.2 | – | – | 16.6 | 25.7 | GI50 (HL-60 [13]): 0.234 µM
5 | C=C1CC(Cn2ccc(=O)[nH]c2=O)(c2ccc(-c3ccccc3)cc2)OC1=O (configuration not stated) | 2.29 | 10.7 | 0.174 | 0.2 | 7.41 | 0.708 | 0.209 | 0.49 | 1.58 | 10.2 | 1.32 | 0.214 | 10.5 | 0.17 | 0.955 | 10 | – | – | – | – | GI50 (HL-60 [14]): 0.105 µM; GI50 (SNB-19 [15]): 17.4 µM
6 | C=C1CC(Cn2cc(C)c(=O)[nH]c2=O)(c2ccc(F)cc2)OC1=O (configuration not stated) | 3.55 | 17.8 | – | 7.59 | – | 5.5 | 4.27 | 5.62 | 3.55 | – | 9.12 | 3.55 | 16.2 | 3.63 | 4.57 | 11.5 | 1.58 | 2.57 | 14.8 | – | GI50 (Hs-578T [16]): 19.1 µM; GI50 (NCI-H460 [17]): 19.1 µM
